The record followed here is PubChem BioAssay (NCI).

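Test compounds were applied to cells in 96-well plates for 48 hours at 5 doses. Abbreviation: GI50, concentration required for 50% inhibition of growth. At the TGI there is no net growth.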 Bounds are passed on as bounds.

Test systems include HOP-18 NSCLC; KM20L2 colon; DMS 273 small cell lung; LXFL 529 NSCLC; RXF-631 renal; DMS 114 small cell lung; M19-MEL melanoma; XF 498 CNS; MDA-N.
Holding throughout (experiment): NCI tumour cell line growth inhibition, 48 h

Turning to `NC1=NN(c2ccccc2)C(=O)C1C(=O)C(=O)NC1C2CC3CC(C2)CC1C3` (stereo not drawn), the TGI in the assay on HOP-18 NSCLC, in the assay with KM20L2 colon, in the assay with DMS 273 small cell lung, with LXFL 529 NSCLC, in the assay on RXF-631 renal and with DMS 114 small cell lung was > 100 µM each time. Also, in the assay on M19-MEL melanoma, the TGI was > 100 µM.
In the case of `COC(=O)C1C2CC3C(OC(=O)C31)C2I` (stereo not drawn), the TGI in the assay with KM20L2 colon, in the assay on DMS 273 small cell lung, in the assay on DMS 114 small cell lung and in the assay with M19-MEL melanoma was > 100 µM throughout.
Regarding `C=CCOC1=C2CC[C@H](O)[C@@]2(C)CCC1=O`, the TGI in the assay with HOP-18 NSCLC, with KM20L2 colon, with DMS 273 small cell lung, in the assay with LXFL 529 NSCLC, in the assay with DMS 114 small cell lung and in the assay on M19-MEL melanoma was > 100 µM each time.
In the case of `CCOC(=O)NC(=O)c1cn(CCCCCCCCCCC(=O)N2CCN(CCn3cc(C(=O)NC(=O)OCC)c(=O)[nH]c3=O)CC2)c(=O)[nH]c1=O`, the TGI with HOP-18 NSCLC, in the assay with XF 498 CNS, with KM20L2 colon, in the assay with DMS 273 small cell lung, with LXFL 529 NSCLC and in the assay with RXF-631 renal was > 100 µM each time. For the same compound, the TGI in the assay on DMS 114 small cell lung and in the assay with M19-MEL melanoma was > 100 µM in each case.
As for `CC1=C(C)C(=O)c2c(cc3c4ccccc4ccn23)C1=O`, the TGI with HOP-18 NSCLC, in the assay on XF 498 CNS, in the assay with KM20L2 colon, in the assay on DMS 273 small cell lung, with DMS 114 small cell lung and in the assay on M19-MEL melanoma was > 100 µM throughout.
With `CCCCCCCCCCCCCCCCc1c(C(=O)OC)[nH]c(=S)[nH]c1=O`, the TGI in the assay on HOP-18 NSCLC, in the assay with XF 498 CNS, in the assay on KM20L2 colon, in the assay with DMS 273 small cell lung, with LXFL 529 NSCLC and in the assay on RXF-631 renal was > 50 µM each time. In the assay on M19-MEL melanoma, the TGI was > 50 µM.
As to `Cn1c(O)c(C=N)c(=O)n(C)c1=O`, the TGI in the assay on HOP-18 NSCLC, in the assay on XF 498 CNS, with KM20L2 colon, with DMS 114 small cell lung and with M19-MEL melanoma was > 100 µM in each case.
Take `OCC1OC(n2ccc3cnccc32)CC1O` (stereo not drawn): the TGI in the assay with HOP-18 NSCLC, with DMS 273 small cell lung, with LXFL 529 NSCLC, with DMS 114 small cell lung and in the assay on M19-MEL melanoma was > 100 µM each time.
With `[Ce+3].[Cl-].[O-]/N=C(\c1ccccc1)c1ccccn1.[O-]/N=C(\c1ccccc1)c1ccccn1.[O-]/N=C(\c1ccccc1)c1ccccn1`, the GI50 with KM20L2 colon was > 100 µM; with DMS 273 small cell lung, 31.9 µM; in the assay on LXFL 529 NSCLC, 44.4 µM; with DMS 114 small cell lung, 28.3 µM; in the assay on M19-MEL melanoma it was 35.8 µM. Besides, the TGI with KM20L2 colon was > 100 µM; with DMS 273 small cell lung, > 100 µM; with LXFL 529 NSCLC, > 100 µM; in the assay with DMS 114 small cell lung, 85 µM; in the assay on M19-MEL melanoma, > 100 µM.
Consider `Cc1c(NC(=O)CCCl)c(=O)oc2c(C)c3occc(=O)c3cc12`, for which the TGI with MDA-N is > 100 µM.
In the case of `CC1C(=O)CCC1C(Sc1ccccc1)(Sc1ccccc1)Sc1ccccc1` (stereo not drawn), the TGI in the assay with XF 498 CNS was 80.9 µM; in the assay on DMS 273 small cell lung, > 100 µM; with LXFL 529 NSCLC, 77.9 µM; in the assay with RXF-631 renal it was > 100 µM; with DMS 114 small cell lung, 49.6 µM; in the assay on M19-MEL melanoma it was > 100 µM.
Regarding `CCOC(=O)/C(=C/c1cc(OC)ccc1OC)CC(=O)O`, the TGI with HOP-18 NSCLC is > 100 µM; in the assay on XF 498 CNS, > 56.7 µM; in the assay with KM20L2 colon, > 100 µM; with DMS 273 small cell lung it was > 100 µM; in the assay on LXFL 529 NSCLC, > 100 µM; with RXF-631 renal it was > 100 µM. The TGI in the assay with DMS 114 small cell lung and in the assay on M19-MEL melanoma was > 100 µM each time.
`O=[N+]([O-])c1ccccc1S(=O)(=O)c1ccccc1[N+](=O)[O-]`: the TGI is > 100 µM in the assay with MDA-N; > 100 µM in the assay with HOP-18 NSCLC; 72.4 µM in the assay with XF 498 CNS; > 100 µM with KM20L2 colon; > 100 µM in the assay on DMS 273 small cell lung; > 100 µM with LXFL 529 NSCLC. Moreover, the TGI in the assay with DMS 114 small cell lung and with M19-MEL melanoma was > 100 µM throughout.
For `Nc1ccccc1S(=O)c1ccccc1` (stereo not drawn), the TGI in the assay on HOP-18 NSCLC, in the assay with XF 498 CNS, with KM20L2 colon, in the assay on DMS 273 small cell lung, with LXFL 529 NSCLC and in the assay with DMS 114 small cell lung was > 100 µM throughout. The TGI with M19-MEL melanoma is > 100 µM.
On to `CC12Oc3ccc4ccccc4c3C1c1c(ccc3ccccc13)O2` (stereo not drawn), for which the TGI in the assay with XF 498 CNS, with KM20L2 colon, in the assay with DMS 273 small cell lung, with LXFL 529 NSCLC, with DMS 114 small cell lung and in the assay with M19-MEL melanoma was > 100 µM throughout.
As for `CC(=O)c1cc2c3c(c1)c1cc4c(cc1c(=O)n3CC2)OCO4`, the TGI in the assay on HOP-18 NSCLC was 76.6 µM; in the assay on XF 498 CNS, > 100 µM; in the assay on KM20L2 colon, > 100 µM; with DMS 273 small cell lung, > 100 µM; in the assay on LXFL 529 NSCLC, > 100 µM; in the assay with RXF-631 renal it was > 100 µM. For the same compound, the TGI with DMS 114 small cell lung and in the assay with M19-MEL melanoma was > 100 µM each time.
Consider `Cn1nc(-c2ccccc2)c(C(=O)/C=C/c2ccccc2)c(N2CCCCC2)c1=O`, for which the TGI in the assay with HOP-18 NSCLC, with KM20L2 colon, with DMS 273 small cell lung, in the assay with LXFL 529 NSCLC, with RXF-631 renal and with DMS 114 small cell lung was > 100 µM throughout.
